Measured values published in US10973748B2, “Compositions and methods for lightening skin and reducing hyperpigmentation” (Versitech Limited, priority 2016, dated 2021).

Experiments:
melan-a cells = experiment: Cellular melanin content (SRB combined assay); type: cell-based, murine; conditions: α-MSH, 72 hrs
Description: Murine melan-a cells (an immortalized, non-tumorigenic murine melanocyte cell line) were obtained from Chinese University of Hong Kong. Cells were cultured in RPMI 1640 medium. Culture medium was supplemented with 10% FBS and 1% penicillin-streptomycin and the cells were incubated at 37° C. in 5% CO2. […] The tested chemical agents (e.g., 6-CEPN and Kojic acid) were individually dissolved as a stock solution at a concentration of 100 mM in 100% dimethyl sulfoxide (DMSO). The stock solution was diluted using culture medium to the desired final concentrations immediately prior to use.
Melan-a cells (3×10^5 cells/well) were plated in 2 mL of 12-well multidishes for at least 24 hrs prior to use. […] Melanin content was measured using a sulphorhodamine B (SRB) combined assay (Lam R Y et al., J Ethnopharmacol, 132(1):274-9 (2010); Chinese patent application publication no. CN 104758191 A) to ensure any reduction in the melanin content was not due to the death of melan-a cells. As the colorimetric-based SRB assay could accurately estimate the number of viable cells, the melanin level was expressed as melanin content versus each single cell by taking into account the results of viable cells from the SRB assay. […] After a 72 h incubate, cell number was counted using SRB assay. […] The OD value was read at 595 nm. […]

[1] = tested on: tyrosinase-related protein-1 (TRP1); experiment: Western blotting of TRP-1 protein level in melan-a cells; type: cell-based, murine; conditions: α-MSH, 72 hrs, 20 μM
Description: (§1) Melan-a cells (3×10^5 cells/well) were seeded in 4 mL of culture medium in a 6-well plate for at least 24 hrs prior to use. The cells were treated with α-MSH (1 μM) alone, α-MSH plus plus different concentration of agents for 72 hrs. The cells were washed with cold PBS and then lysed in 100 μL of RIPA buffer containing 1% Nonidet P-40, 0.1% sodium dodecylsulfate, 0.5% sodium deoxycholate, and 2% protease inhibitor at 4° C. Samples were centrifuged at 14,000 rpm for 30 mins at 4° C., and total proteins in the supernatant were separated. 10 μg of denatured proteins were loaded per lane, and separated by 10% SDS-PAGE gel. Proteins were then transferred to Immobilon-P Transfer Membranes (Millipore Co., Bed-ford, Mass.) by semidry transfer. Membranes were incubated with primary antibodies specific for Tyrosinase, tyrosinase-related protein-1 (TRP1), tyrosinase-related protein-2 (TRP2), and microphthalmia-associated transcription factor (MITF). The blots were subsequently washed and incubated with the appropriate secondary antibodies. Immunoreactive protein bands were visualized with enhanced chemiluminescence western blotting detection reagents and quantified using an ODYSSEY Fc Imaging system. The amounts of protein loaded were normalized against a control protein, β-actin.

[2] = tested on: tyrosinase-related protein-2 (TRP2); experiment: Western blotting of TRP-2 protein level in melan-a cells; type: cell-based, murine; conditions: α-MSH, 72 hrs, 20 μM
Description: as §1

[3] = tested on: MelanoDerm (Mel-300-A) epidermal equivalents containing melanocytes; experiment: Tissue viability of artificial skin model (CCK-8); type: cell-based, human; conditions: whole treatment period (14 days), rapamycin 2.5 μM, 6-CEPN 10 μM, 8-CEPQ 5 μM
Description: Epidermal equivalents containing melanocytes (Mel-300-A) were maintained according to the manufacturer's instructions. Mel-300-A tissue was cultured in EPI-100-NMM-113 medium for 14 days. Agents were dissolved in tissue culture medium and changed every other day. The test agents were either (1) rapamycin (2.5 μM), as the positive control in depigmentation, (2) 6-CEPN (10 μM), or (3) 8-CEPQ (5 μM). The concentration of rapamycin used was lower than 6-CEPN and 8-CEPQ, as rapamycin is toxic to cells at higher concentration. Pigmentation of these skin equivalents was compared against treatment of cells with a culture medium only (denoted as “vehicle”). Tissue viability was assessed on day 14 by CCK-8 assay as described in Example 1. On day 14, single tissues were harvested and photographed. The L* parameter was used to evaluate skin lightening or darkening. The lighter the skin, the greater the L* value. ΔL* value was measured by a Chroma Meter CR400 (Konica Minolta) for an evaluation of lightening as a function of time. Three tissues for each treatment were frozen for the Solvable Melanin assay (Bessou-Touya et al., “Chimeric human epidermal reconstructs to study the role of melanocytes and keratinocytes in pigmentation and photoprotection.” Journal of investigative dermatology 111(6):1103-1108 (1998)). Additional tissues were fixed by 10% formanin. For melanin staining in paraffin-embedded tissues, Fontana-Masson silver staining was used as previously detailed (Barbosa et al., “A simple and economical modification of the Masson-Fontana method for staining melanin granules and enterochromaffin cells.” Stain technology 59(4):193-196 (1984)).

O=C1C[C@@H](c2ccc(O)cc2)Oc2cc(O)c(/C=C/c3ccccc3)c(O)c21 [6-CEPN, 6-C-(E-phenylethenyl)-naringenin]
depigmenting effects (in words) (melan-a cells): much stronger depigmenting effects than kojic acid
depigmentation (melan-a cells; 20 μM): ~80%
protein level of TRP-1 [1]: significantly suppressed
protein level of TRP-2 [2]: significantly suppressed
cytotoxicity (tissue viability) [3]: without significant cytotoxicity
